Data taken from publication PMC8861568, “Identification of (Z)-2-benzylidene-dihydroimidazothiazolone derivatives as tyrosinase inhibitors: Anti-melanogenic effects and in silico studies” (Computational and Structural Biotechnology Journal, 2022).
Entries after “also recorded” stand apart in the source; their conditions may differ.

Columns and labels:
[1] = molecular target: mushroom tyrosinase (mTYR) (Agaricus bisporus, UniProt C7FF04); experiment: Kinetics of mTYR inhibition (Lineweaver-Burk plots); assay type: biochemical; conditions: for mode of mTYR inhibition: Lineweaver-Burk plots, L-tyrosine; for Vmax: independent of inhibitor concentration
Chain of mushroom tyrosinase (mTYR) (C7FF04 1-392): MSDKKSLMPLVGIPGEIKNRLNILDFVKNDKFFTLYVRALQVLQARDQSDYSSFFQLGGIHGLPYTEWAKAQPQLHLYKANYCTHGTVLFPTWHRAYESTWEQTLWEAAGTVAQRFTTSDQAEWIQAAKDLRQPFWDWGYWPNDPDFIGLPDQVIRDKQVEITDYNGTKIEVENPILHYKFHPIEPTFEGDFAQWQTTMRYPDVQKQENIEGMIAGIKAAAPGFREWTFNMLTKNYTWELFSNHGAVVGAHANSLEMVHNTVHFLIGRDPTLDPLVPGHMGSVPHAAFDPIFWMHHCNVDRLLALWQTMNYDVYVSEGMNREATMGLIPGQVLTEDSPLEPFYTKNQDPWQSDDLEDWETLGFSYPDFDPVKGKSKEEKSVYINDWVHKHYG
Protocol: Lineweaver-Burk double reciprocal plots were used to determine their inhibitory modes of action. Kinetic analyses were carried out using four concentrations of DHIT derivatives 1b (0, 0.0625, 0.125, or 0.25 μM) and 1f (0, 1, 2, or 4 μM) in the presence of different concentrations of L-tyrosine (0.5, 1, 2, 4, 8, or 16 mM for 1b and 1, 2, 4, or 8 mM for 1f). Lineweaver-Burk double reciprocal plots produced four different lines with different slopes, corresponding to the four concentrations, for each derivative. […] KM values were 1.515, 7.846, 15.740, and 23.586 mM at […], and 3.758, 4.892, 5.206, and 8.127 mM at 0, 1, 2, and 4 μM of 1f, respectively. […] The binding abilities of compounds 1b and 1f to the active site of tyrosinase were also supported by in silico docking simulation results (Figs. 5 and 6).
Lineweaver-Burk plots were used to determine modes of mTYR inhibition. Compounds 1b or 1f (10 μL, final concentrations: 0, 0.0625, 0.125, or 0.25 μM for 1b and 0, 1, 2 or 4 μM for 1f) and mTYR solution (20 μL, 150 units) were added to a 96-well plate containing 170 μL of a mixture containing aqueous L-tyrosine solution at final concentrations of 0.5, 1.0, 2.0, 4.0, 8.0, or 16 mM for 1b or 1.0, 2.0, 4.0, or 8.0 mM for 1f; aqueous L-tyrosine solution, distilled water, and 50 mM potassium phosphate buffer (pH 6.5) in the ratio 10:9:10. Initial rates of dopachrome formations in reaction mixtures were calculated by measuring increases in optical density at 492 nm (ΔOD492/min) using a microplate reader (VersaMax^TM, Molecular Devices, Sunnyvale, CA, USA). Maximum velocities of tyrosinase-L-tyrosine reactions were determined using Lineweaver-Burk plots (inverse of reaction velocity (1/V) versus the inverse of L-tyrosine concentration (1/[S])) obtained using 4 – 5 different concentrations of L-tyrosine. Modes of tyrosinase inhibition were determined using convergence points of plots.

[2] = molecular target: T1, tyrosinase in B16F10 cells (Mus musculus, UniProt P11344); experiment: Cellular tyrosinase inhibition assay in B16F10 cells; assay type: cell-based, murine; conditions: 48 h; for cellular tyrosinase activity: 5, 10, 20 μM, α-MSH 1 μM + IBMX 200 μM
T1 construct: endogenous in cells; host or cells: B16F10 murine melanoma cells (ATCC), stimulated with alpha-MSH and IBMX
T1 sequence (P11344 19-533): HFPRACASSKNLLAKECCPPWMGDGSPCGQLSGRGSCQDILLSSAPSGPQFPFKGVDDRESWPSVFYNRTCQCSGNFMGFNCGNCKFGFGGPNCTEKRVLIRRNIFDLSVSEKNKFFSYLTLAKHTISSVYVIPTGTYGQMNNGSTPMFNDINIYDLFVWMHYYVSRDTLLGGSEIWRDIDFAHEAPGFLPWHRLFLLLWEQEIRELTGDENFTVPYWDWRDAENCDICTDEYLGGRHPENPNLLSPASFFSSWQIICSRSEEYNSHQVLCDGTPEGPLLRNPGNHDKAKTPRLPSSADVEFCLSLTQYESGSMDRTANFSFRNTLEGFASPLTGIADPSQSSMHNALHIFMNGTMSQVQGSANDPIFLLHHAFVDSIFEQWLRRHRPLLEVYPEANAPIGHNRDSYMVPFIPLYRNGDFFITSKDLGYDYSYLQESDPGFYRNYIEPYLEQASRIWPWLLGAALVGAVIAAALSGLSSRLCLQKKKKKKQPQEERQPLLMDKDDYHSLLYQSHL
Protocol: B16F10 cells co-stimulated with α -melanocyte-stimulating hormone (α -MSH) and 3-isobutyl-1-methylxanthine (IBMX) were used to investigate the inhibitory effects of compounds 1b and 1f on mammal cellular tyrosinase. Kojic acid was used as the positive control. […] Cellular tyrosinase activities were determined by measuring optical densities at 492 nm.
Cellular tyrosinase inhibition assays were conducted as previously described with minor modification. B16F10 cells were seeded at a density of 1 × 10^5 cells/well in 6-well plates and incubated in a humidified 5% CO2 atmosphere for 24 h at 37 °C. […] Cells were then washed twice with PBS, lysed by adding 45 mM of phosphate buffer (100 µL) containing 1% Triton X-100 (5 µL) and 1% PMSF (5 µL, phenylmethylsulfonyl fluoride) and frozen at −80 °C for 1 h. Lysates were clarified by centrifugation at 12,000 rpm for 30 min at 4 °C. Cell lysate supernatants (80 µL/well) in a 96-well plate were then mixed with 20 µL of L-DOPA (2 mg/mL in distilled water) and incubated for 30 min at 37 °C. Absorbances of reaction mixtures at 492 nm were recorded using a microplate reader (VersaMax^TM, Molecular Devices, Sunnyvale, CA, USA). Kojic acid was used as the positive control. Protein concentrations were determined using Bicinchoninic Acid (BCA) protein assay reagent using Bovine Serum Albumin (BSA) as the standard (Thermo Scientific, Rockford, IL, USA). All experiments were independently conducted three times.

[3] = system: B16F10 cells; experiment: Intracellular melanin content in B16F10 cells; assay type: cell-based, murine; conditions: 48 h; for intracellular melanin production compared with kojic acid: α-MSH + IBMX; for intracellular melanin production: 5, 10, 20 μM, α-MSH 1 μM + IBMX 200 μM
Protocol: To determine whether the inhibitory effects of compounds 1b and 1f on cellular TYR influence melanogenesis, cellular melanin production was measured. As was performed in TYR inhibition experiments, B16F10 cells co-stimulated with α -MSH and IBMX were used to compare the inhibitory effects of 1b and 1f on melanogenesis. Kojic acid was used as the positive control. […] Intracellular melanin contents were determined by measuring optical densities at 405 nm.
The inhibitory effects of compounds 1b and 1f on intracellular melanin contents were investigated as previously described. B16F10 cells were seeded at a density of 1 × 10^5 cells/well in 6-well plates and incubated in a humidified 5% CO2 atmosphere for 24 h at 37 °C. […] For extracellular melanin contents, the optical density of the cell culture media was directly measured at 405 nm. On the other hand, for intracellular melanin contents, the following procedure was performed. Briefly, after washing twice with PBS, adherent cells were detached by incubation in Trypsin/EDTA for 1 min. Pellets were dissolved in 100 μL of 1 N NaOH and then incubated for 1 h at 60 °C to dissolve the melanin. Intracellular melanin was quantified by measuring optical densities at 405 nm using a microplate reader (VersaMax^TM, Molecular Devices, Sunnyvale, CA, USA). Results were normalized versus cell pellet total protein using BCA protein assay reagent using BSA as the standard (Thermo Scientific, Rockford, IL, USA). The intracellular melanin contents were calculated using the following equation: (ΔODsample/ΔODcontrol) × 100%; where ΔODsample = the optical density of the test compound, and ΔODcontrol = the optical density of control. Experiments were performed in triplicate.

Compound	mode of mTYR inhibition [1]	Ki ([1]; at 0.0625 μM of 1b)	Ki ([1]; at 0.125 μM of 1b)	Ki ([1]; at 0.25 μM of 1b)	Vmax [1]	cellular tyrosinase inhibition compared with kojic acid ([2]; 1b at 10 μM, α-MSH + IBMX)	cellular tyrosinase activity [2]	intracellular melanin production compared with kojic acid ([3]; 1b at 5 μM)	intracellular melanin production [3]	Ki ([1]; at 1 μM of 1f)	Ki ([1]; at 2 μM of 1f)	Ki ([1]; at 4 μM of 1f)	intracellular melanin production compared with kojic acid ([3]; 1f at 20 μM, kojic acid 20 μM)
O=c1/c(=C/c2ccc(O)cc2O)sc2n1CCN=2 [Compound 1b, (Z)-2-(2,4-Dihydroxybenzylidene)-5,6-dihydroimidazo[2,1-b]thiazol-3(2H)-one]	competitive inhibitors; also recorded: competitively inhibited	15 nM	13.3 nM	17.2 nM	0.0126 mM/min	to the same extent as compound 1f or kojic acid at 20 μM	significantly and concentration-dependently reduced this increase in tyrosinase activity	by the same extent as kojic acid at 20 μM	significantly and concentration-dependently suppressed this increase	–	–	–	–
COc1ccc(/C=c2\sc3n(c2=O)CCN=3)cc1O [Compound 1f, (Z)-2-(3-Hydroxy-4-methoxybenzylidene)-5,6-dihydroimidazo[2,1-b]thiazol-3(2H)-one]	competitive inhibitors; also recorded: competitively inhibited	–	–	–	0.0103 mM/min	–	significantly and concentration-dependently reduced this increase in tyrosinase activity	–	significantly and concentration-dependently suppressed this increase	3310 nM	5190 nM	3440 nM	stronger inhibitory effect on melanogenesis than kojic acid
